Values quoted from earlier work, collected in patent US10828414B2, “Magnetic filtration devices and methods related thereto” (The Regents of the University of California, priority 2015, dated 2020).

Conditions: IAC, regardless of infused dose

COc1cccc2c1C(=O)c1c(O)c3c(c(O)c1C2=O)C[C@@](O)(C(=O)CO)C[C@@H]3O[C@H]1C[C@H](N)[C@H](O)[C@H](C)O1 [Dox, doxorubicin]
first pass hepatic clearance: 50-70%
